{
  "source": "patent US5068337A",
  "about": "“1,4-dihydropyridines and their ability to inhibit blood platelet aggregation, inhibit thromboxane synthetase and phospholipase” (John Wyeth & Brother Limited, priority 1984, dated 1991)",
  "key": {"thromboxane synthetase": {"system": "thromboxane synthetase", "test": "inhibition of thromboxane production (TxB2 radio-immunoassay, rabbit platelet rich plasma)", "type": "cell-based", "conditions": "Oryctolagus cuniculus, rabbit PRP, adenosine diphosphate and adrenalin, read-out: IC50 (50% inhibition of TxB2)", "experimental": "The compounds of formula I were tested for their ability to inhibit thromboxane production by the following standard test:\na) Generation of thromboxanes\nBlood (approx. 75 ml) is obtained from an anaesthetised rabbit and centrifuged at 200 g for 10 minutes to obtain platelet rich plasma (PRP). An aliquot of PRP is incubated for 10 minutes at 37° C. in the presence of vehicle or drug. Platelet aggregation is induced by the addition of adenosine diphosphate and adrenalin. The tubes are incubated for 3 minutes, centrifuged at 10,000 for 3 minutes and a […] aliquot of the supernatant taken for radio-immunoassay of thromboxane B2 (TxB2).\nb) Radio-immunoassay of TxB2\nThe total incubation volume is 150μ containing 50μl of ^3 H - TxB2 (0.005 μCi), […] of sample or authentic TxB2 ranging from 5 to 300 pg per tube as standards and 50 μl of rabbit anti-sera to TxB2 (in a concentration which will bind 50% of H-TxB2) After incubation for 1 hour at room temperature the tubes are further incubated for 16-20 hours at 4° C. 1 ml of dextran-coated charcoal is then added to the tubes which are further incubated on ice for 10 minutes. Following the incubation the samples are centrifuged at 10,000 g for 10 minutes and […] of the supernatant added to 5 ml of scintillation cocktail. Measurement of the radioactivity in the supernatant quantifies the amount of [^3 H]-TxB2 bound by the antibody. The concentration of unlabelled TxB2 in the sample is then determined from a linear standard curve.\nIC50 values represent the concentrations of drug which achieve 50% inhibition of TxB2."}, "[1]": {"system": "spontaneously hypertensive rats", "test": "antihypertensive activity in spontaneously hypertensive rats (tail cuff systolic pressure)", "type": "in vivo, rat", "experimental": "The compounds of formula I were tested for antihypertensive activity by the following standard procedure:\nThe blood pressures of male or female spontaneously hypertensive rats are measured in a 37° C constant temperature housing by means of a tail cuff. Rats with systolic pressures below 155 mmHg are discarded. Groups of rats are dosed orally with the test substance in a suitable vehicle or with vehicle alone. Systolic pressures are recorded before dosing and at selected time points afterwards. Heart rates are derived from caudal artery pulses. Results are analysed statistically by means of 2 way analysis of variance (within group)."}, "[2]": {"system": "blood platelet aggregation", "test": "inhibition of blood platelet aggregation (arachidonic acid induced, rabbit platelet rich plasma)", "type": "cell-based, rabbit (New Zealand White)", "conditions": "IC50 dazoxiben / IC50 test; 250 μM arachidonic acid, rabbit PRP", "experimental": "Compounds of formula I were tested for their ability to inhibit blood platelet aggregation by a modification of the procedure of Fantl, Australian J.Exp.Biol- Med.Sci. 45, 355-62 1967.\nSince platelet aggregation is the initial step in thrombus formation it -is considered that compounds which prevent aggregation or reduce platelet adhesiveness may inhibit the initiation of the atherosclerotic process. The effect of drugs on adhesiveness is measured in platelet-rich plasma containing a small amount of arachidonic acid which markedly increases aggregation in vitro and may be a physiological agent for doing so in vivo. The actual test procedure used in described below.\nNew Zealand White rabbits (2.5-3kg) are anaesthetised with an injection, via the marginal ear vein, of […]. The carotid artery is cannulated and blood (100-150 ml) is withdrawn into 50 ml syringes containing 3.8% sodium citrate (Ratio blood: citrate =9:1).\nBlood is centrifuged at 200 g (1500 r.p.m.) for 10 minutes at 5° C. and the platelet rich plasma (PRP) removed. The platelets are then kept at room temperature in a screw topped plastic centrifuge tube for the duration of the experiment.\nA twin channel platelet aggregometer--(HU aggregometer, A. Browne Ltd, Leicester, UK) is used. 1.0 ml aliquots of PRP are prewarmed for 5-10 minutes and stirred continuously at 1100 rpm. Aggregation is induced by addition of 250μM arachidonic acid, (8μl volume) to the PRP samples. The aggregometer output is set at maximum and the chart recorder sensitivity is altered to give a full scale deflection to this arachidonic acid response.\nControl responses are recorded as the maximum deflection obtained after addition of 250μM arachidonic acid.\nPRP samples are preincubated for 1 minute with the test compounds followed by arachidonic acid addition. The maximum deflection after the addition of arachidonic acid is then recorded. All drugs are screened initially at 10^-4 M (final concentration), i.e. 10μl of a 1×10^-2 M stock solution of the drug dissolved in distilled water is added to the PRP.\nDazoxiben, a thromboxane synthetase inhibitor (Randall, M. J. et al Research 23 145-162, 1981)is used as a positive control and all test components are compared with Dazoxiben. The activity of the test compound is expressed as the ratio IC50 Dazaxiben/IC50 Test where IC50 is the dose required to inhibit the A.A. induced aggregation by 50%."}, "isolated rat portal vein": {"system": "isolated rat portal vein", "test": "calcium antagonist activity: response of isolated rat portal vein to increasing calcium ion concentration in vitro", "conditions": "read-out: molar concentration required to reduce the response by 50%", "from_the_text": "In this-test a-molar concentration of 2×10^-7 M of 1,4-dihydro-2-(imidazol- 1-ylmethyl)-6-methyl 4-(3-nitrophenyl)pyridine-3, 5-dicarboxylic acid 3-ethyl 5-methyl ester was required to reduce the response by 50%."}, "human platelet PLA2": {"system": "human platelet PLA2", "test": "Phospholipase A2 (PLA2) inhibition, hydrolysis of E.coli membrane phospholipids by human platelet PLA2", "type": "biochemical", "conditions": "100 μM", "experimental": "Of particular interest for this activity are compounds of formula I wherein Ar represents an aryl radical having a 2-nitro substituent. […] PLA2 activity was assayed by a procedure based on Franson, R.C., Chapter 12. Intracellular Metabolism of Ingested Phospholipids. Liposomes: from Physical Structure to Therapeutic Applications. North-Holland Biomedical Press, 1981, pp 349-380 and involving measuring the hydrolysis of E.coli membrane phospholipids and the release of free [1-^14 ]oleic acid from the C-2 position of phospholipids by human platelet PLA2."}},
  "data": [
    {"smiles": "CCOC(=O)C1=C(Cn2ccnc2)NC(C)=C(C(=O)OC)C1c1cccc([N+](=O)[O-])c1", "note": "(stereo not drawn) [Example 1, 1,4-Dihydro-2-(imidazol-1-ylmethyl)-6-methyl-4-(3-nitro-phenyl)pyridine-3,5-dicarboxylic acid 3-ethyl 5-methyl diester]", "values": [
      {"measurement": "IC50", "setting": "thromboxane synthetase", "result": 5, "unit": "µM"},
      {"measurement": "BLOOD PRESSURE as % of pre-dose level", "setting": "[1]; 0.003 mmol/kg po, 6 hrs", "result": 70, "unit": "%"},
      {"measurement": "BLOOD PRESSURE as % of pre-dose level", "setting": "[1]; 0.003 mmol/kg po, 24 hrs", "result": 83, "unit": "%"},
      {"measurement": "BLOOD PRESSURE as % of pre-dose level", "setting": "[1]; 0.003 mmol/kg po, t = 2 hrs", "result": 65, "unit": "%"},
      {"measurement": "BLOOD PRESSURE as % of pre-dose level", "setting": "[1]; 0.03 mmol/kg po, 6 hrs", "result": 62, "unit": "%"},
      {"measurement": "BLOOD PRESSURE as % of pre-dose level", "setting": "[1]; 0.03 mmol/kg po, 24 hrs", "result": 105, "unit": "%"},
      {"measurement": "BLOOD PRESSURE as % of pre-dose level", "setting": "[1]; 0.03 mmol/kg po, t = 2 hrs", "result": 48, "unit": "%"},
      {"measurement": "BLOOD PRESSURE as % of pre-dose level", "setting": "[1]; 0.15 mmol/kg po, 6 hrs", "result": 46, "unit": "%"},
      {"measurement": "BLOOD PRESSURE as % of pre-dose level", "setting": "[1]; 0.15 mmol/kg po, 24 hrs", "result": 85, "unit": "%"},
      {"measurement": "BLOOD PRESSURE as % of pre-dose level", "setting": "[1]; 0.15 mmol/kg po, t = 2 hrs", "result": 42, "unit": "%"},
      {"measurement": "Inhibition of blood platelet aggregation potency ratio (dazoxiben = 1)", "setting": "[2]", "result": 1.2},
      {"measurement": "IC50", "setting": "isolated rat portal vein", "result": 0.2, "unit": "µM"}
    ]},
    {"smiles": "CCOC(=O)C1=C(C)NC(CCn2ccnc2)=C(C(=O)OCC)C1c1ccccc1[N+](=O)[O-]", "note": "(stereo not drawn) [Example 2, 1,4-Dihydro-2-[2-(imidazol-1-yl)-ethyl]-6-methyl-4-(2-nitrophenyl)pyridine-3,5-dicarboxylic acid diethyl ester]", "values": [
      {"measurement": "IC50", "setting": "thromboxane synthetase", "result": 2.3, "unit": "µM"},
      {"measurement": "BLOOD PRESSURE as % of pre-dose level", "setting": "[1]; 0.03 mmol/kg po, 6 hrs", "result": 99, "unit": "%"},
      {"measurement": "BLOOD PRESSURE as % of pre-dose level", "setting": "[1]; 0.03 mmol/kg po, 24 hrs", "result": 105, "unit": "%"},
      {"measurement": "BLOOD PRESSURE as % of pre-dose level", "setting": "[1]; 0.03 mmol/kg po, t = 2 hrs", "result": 63, "unit": "%"},
      {"measurement": "BLOOD PRESSURE as % of pre-dose level", "setting": "[1]; 0.15 mmol/kg po, 6 hrs", "result": 42, "unit": "%"},
      {"measurement": "BLOOD PRESSURE as % of pre-dose level", "setting": "[1]; 0.15 mmol/kg po, 24 hrs", "result": 74, "unit": "%"},
      {"measurement": "BLOOD PRESSURE as % of pre-dose level", "setting": "[1]; 0.15 mmol/kg po, t = 2 hrs", "result": 35, "unit": "%"},
      {"measurement": "Inhibition of blood platelet aggregation potency ratio (dazoxiben = 1)", "setting": "[2]", "result": 0.79},
      {"measurement": "inhibition of PLA2 activity", "setting": "human platelet PLA2", "result": 77, "unit": "%"}
    ]},
    {"smiles": "COC(=O)C1=C(C)NC(CCn2ccnc2)=C(C(=O)OC)C1c1ccccc1[N+](=O)[O-]", "note": "(stereo not drawn) [Example 3, 1,4-Dihydro-2-[2-(1-imidazolyl)ethyl]-6-methyl-4-(2-nitrophenyl)pyridine-3,5-dicarboxylic acid dimethyl ester]", "values": [
      {"measurement": "Inhibition of blood platelet aggregation potency ratio (dazoxiben = 1)", "setting": "[2]", "result": 1.64}
    ]},
    {"smiles": "CCOC(=O)C1=C(COc2cccnc2)NC(C)=C(C(=O)OC)C1c1cccc([N+](=O)[O-])c1", "note": "(stereo not drawn) [Example 4, 1,4-Dihydro-2methyl-4-(3-nitrophenyl)-6-[(3-pyridyloxy)methyl]pyridine-3,5-dicarboxylic acid 5-ethyl-3-methyl diester]", "values": [
      {"measurement": "Inhibition of blood platelet aggregation potency ratio (dazoxiben = 1)", "setting": "[2]", "result": 1.1}
    ]},
    {"smiles": "COC(=O)C1=C(C)NC(CCn2cnc3ccccc32)=C(C(=O)OC)C1c1cccc(Cl)c1Cl", "note": "(stereo not drawn) [Example 5, 2-[2-(1-Benzimidazolyl)ethyl]-4-[2,3-dichlorophenyl]-1,4-dihydro-6-methylpyridine-3,5-dicarboxylic acid dimethylester]", "values": [
      {"measurement": "IC50", "setting": "thromboxane synthetase", "result": 12.3, "unit": "µM"}
    ]}
  ]
}
